In US7625948B2, “Ester compound and medicinal use thereof” (Japan Tobacco Inc., priority 2002, dated 2009):

System: HepG2 cells
Test: Test Example 2: inhibition of apolipoprotein B secretion from HepG2 cells, ELISA (also used for metabolites in Test Example 8)
Type: cell-based
Conditions: Homo sapiens, 24 hours, apo B in supernatant by ELISA, read-out: Test Example 2 Inhibition of apo B secretion IC50
Protocol: Inhibition of Apolipoprotein B Secretion from HepG2 Cells
HepG2 cells were suspended in Dulbecco's Modified Eagle's Medium (DMEM) (containing 10% fetal bovine serum, 100 units/mL penicillin and 100 μg/mL streptomycin), and placed on a 96-well plate (4×10^4 cells/well), then incubated for 24 hours. After removal of the medium, DMEM was replaced by a medium containing a sample dissolved in DMSO or a medium containing DMSO (concentration of DMSO: 0.5%) and incubation was further performed for 24 hours, after which the supernatant was recovered, and concentration of apo B in the supernatant was assayed by Enzyme-Linked Immunosorbent Assay (ELISA)
ELISA was carried out as follows. Anti-human apo B monoclonal antibody (0.5 μg/well) diluted with a solution of sodium carbonate in sodium bicarbonate buffer (50 mL, pH 9.6) was placed in a 96-well plate for ELISA, and allowed to stand at room temperature for 15 hours. After washing the plate, a blocking solution (250 μL/well) was placed in the well, and allowed to stand at room temperature for 1.5 hours. After washing the plate, a standard and a sample (100 μL/well) were placed in the well and allowed to stand at room temperature for one hour. The standard was prepared by adjusting the concentration of the purified human apo B with the DMEM to 0 to 1000 ng/mL. After washing the plate, an anti-human apo B polyclonal antibody labeled with a horse radish peroxidase which was diluted in 1:1000 with DEME (100 μL/well), and allowed to stand at room temperature for one hour. After washing the plate, 2,2-azinobis(3-ethylbenzothiazoline-6-sulfonic acid) solution (100 μL/well) was placed in the well, and allowed to stand at room temperature for one hour. The reaction was stopped by addition of 2% oxalic acid (100 μL/well), and absorbency at 405 nm was measured. Concentration of apo B in the sample was calculated on the basis of a standard curve of the standard. Inhibition rate (%) was calculated from the assayed values in accordance with the following equation.
Inhibition rate (%)=100×(1 minus (concentration of apo B in sample group/concentration of apo B in DMSO group).
Based on the above equation, 50% inhibition concentration (IC50) was determined.
Inhibitory Activity on MTP and apo B Secretion Inhibition by Metabolites
In a similar manner to Test Examples 1 and 2, the activity of metabolites was assayed.

SMILES	IC50 [nM]
CCOC(=O)C(COC(=O)Cc1ccc(NC(=O)c2ccccc2-c2ccc(C(F)(F)F)cc2)c(OCC)c1)(C(=O)OCC)c1ccccc1 [Example 3, 2-(2-{3-Ethoxy-4-[(4′-trifluoromethylbiphenyl-2-carbonyl)amino]phenyl}acetoxymethyl)-2-phenylmalonic acid diethyl ester]	1.9
CCNC(=O)C(COC(=O)Cc1ccc(NC(=O)c2ccccc2-c2ccc(C(F)(F)F)cc2)c(O)c1)(C(=O)NCC)c1ccccc1 [Example 3-2, {3-Hydroxy-4-[(4′-trifluoromethylbiphenyl-2-carbonyl)amino]phenyl}acetic acid 2,2-bisethylcarbamoyl-2-phenylethyl ester]	4.2
CCOC(=O)C(COC(=O)Cc1ccc(NC(=O)c2ccccc2-c2ccc(C(F)(F)F)cc2)c(OC(C)C)c1)(C(=O)OCC)c1ccccc1 [Example 3-9]	1.6
CCCOc1cc(CC(=O)OCC(C(=O)NCC)(C(=O)NCC)c2ccccc2)ccc1NC(=O)c1ccccc1-c1ccc(C(F)(F)F)cc1 [Example 3-12]	0.72
CCNC(=O)C(COC(=O)Cc1ccc(NC(=O)c2ccccc2-c2ccc(C(F)(F)F)cc2)c(OCc2ccccc2)c1)(C(=O)NCC)c1ccccc1 [Example 3-13]	1.9
CCOC(=O)C(COC(=O)Cc1ccc(NC(=O)c2ccccc2-c2ccc(C(F)(F)F)cc2)c(O)c1)(C(=O)OCC)c1ccccc1 [Example 3-15]	49.9
CCNC(=O)C(COC(=O)Cc1ccc(NC(=O)c2ccccc2-c2ccc(C(F)(F)F)cc2)c(N(C)C)c1)(C(=O)NCC)c1ccccc1 [Example 4, 2-{3-Dimethylamino-4-[(4′-trifluoromethylbiphenyl-2-carbonyl)amino]phenyl}acetic acid 2,2-bisethylcarbamoyl-2-phenylethyl ester]	0.33
CCNC(=O)C(COC(=O)Cc1ccc(NC(=O)c2ccccc2-c2ccc(C(F)(F)F)cc2)c(N2CCCCC2)c1)(C(=O)NCC)c1ccccc1 [Example 4-2]	16
CCNC(=O)C(COC(=O)Cc1ccc(NC(=O)c2ccccc2-c2ccc(C(F)(F)F)cc2)c(N2CCCC2)c1)(C(=O)NCC)c1ccccc1 [Example 4-3]	7.9
CCOC(=O)C(COC(=O)Cc1ccc(NC(=O)c2ccccc2-c2ccc(C(F)(F)F)cc2)c(N2CCCC2)c1)(C(=O)OCC)c1ccccc1 [Example 4-5]	5.2
CCOC(=O)C(COC(=O)Cc1ccc(NC(=O)c2ccccc2-c2ccc(C(F)(F)F)cc2)c(N(C)C)c1)(C(=O)OCC)c1ccccc1 [Example 4-6]	7.5
CCOC(=O)C(COC(=O)Cc1ccc(NC(=O)c2ccccc2-c2ccc(C(F)(F)F)cc2)c(N2CCOCC2)c1)(C(=O)OCC)c1ccccc1 [Example 4-7]	15
CCOC(=O)C(COC(=O)Cc1ccc(NC(=O)c2ccccc2-c2ccc(C(F)(F)F)cc2)c(N(CC)CC)c1)(C(=O)OCC)c1ccccc1 [Example 4-8]	10
CCNC(=O)C(CCOC(=O)Cc1cccc(NC(=O)c2ccccc2-c2ccc(C(F)(F)F)cc2)c1OC)(C(=O)NCC)c1ccccc1 [Example 5-12]	1.3
CCOC(=O)C(CCOC(=O)Cc1cccc(NC(=O)c2ccccc2-c2ccc(C(F)(F)F)cc2)c1OC)(C(=O)OCC)c1ccccc1 [Example 5-13]	2.4
CCNC(=O)C(CCOC(=O)Cc1cccc(NC(=O)c2ccccc2-c2ccc(C(F)(F)F)cc2)c1OCC)(C(=O)NCC)c1ccccc1 [Example 5-14]	0.34

SMILES	IC50 [nM]
CCOC(=O)C(CCOC(=O)Cc1cccc(NC(=O)c2ccccc2-c2ccc(C(F)(F)F)cc2)c1OCC)(C(=O)OCC)c1ccccc1 [Example 5-15]	6.4
CCOC(=O)C(CCOC(=O)Cc1cccc(NC(=O)c2ccccc2-c2ccc(C(F)(F)F)cc2)c1OC(C)C)(C(=O)OCC)c1ccccc1 [Example 5-16]	3
CCOC(=O)C(CCOC(=O)Cc1cccc(NC(=O)c2ccccc2-c2ccc(C(F)(F)F)cc2)c1C(=O)OC)(C(=O)OCC)c1ccccc1 [Example 5-17]	5.2
CCNC(=O)C(COC(=O)Cc1ccc2c(c1)oc(=O)n2C(=O)c1ccccc1-c1ccc(C(F)(F)F)cc1)(C(=O)NCC)c1ccccc1 [Example 9-3, [2-Oxo-3-(4′-trifluoromethylbiphenyl-2-carbonyl)-2,3-dihydrobenzoxazol-6-yl]acetic acid 2,2-bisethylcarbamoyl-2-phenylethyl ester]	59
CCOC(=O)c1cc(CC(=O)OCC(C(=O)OCC)(C(=O)OCC)c2ccccc2)ccc1NC(=O)c1ccccc1-c1ccc(C(F)(F)F)cc1 [Example 9-4, 2-(2-{3-Ethoxycarbonyl-4-[(4′-trifluoromethylbiphenyl-2-carbonyl)amino]phenyl}acetoxymethyl)-2-phenylmalonic acid diethyl ester]	9.9
CCOC(=O)C(COC(=O)CCc1ccc(NC(=O)c2ccccc2-c2ccc(C(F)(F)F)cc2)c(C(=O)N(C)C)c1)(C(=O)OCC)c1ccccc1 [Example 9-5, 2-(3-{3-Dimethylcarbamoyl-4-[(4′-trifluoromethylbiphenyl-2-carbonyl)-amino]-phenyl}-propionyloxymethyl)-2-phenyl-malonic acid diethyl ester]	3.1
CCNC(=O)C(COC(=O)c1ccc(CNC(=O)c2ccccc2-c2ccc(C(F)(F)F)cc2)cc1)(C(=O)NCC)c1ccccc1 [Example 9-6]	59
CCNC(=O)C(COC(=O)Cc1ccc(NC(=O)c2ccccc2-c2ccc(C(F)(F)F)cc2)c(C(=O)OCc2ccccc2)c1)(C(=O)NCC)c1ccccc1 [Example 9-8]	6.9
CCOC(=O)C(COC(=O)Cc1ccc(NC(=O)c2ccccc2-c2ccc(C(F)(F)F)cc2)c(C(=O)OCc2ccccc2)c1)(C(=O)OCC)c1ccccc1 [Example 9-14]	41
CCOC(=O)C(COC(=O)Cc1ccc2c(c1)C(=O)N2C(=O)c1ccccc1-c1ccc(C(F)(F)F)cc1)(C(=O)OCC)c1ccccc1 [Example 9-17]	23
CCOC(=O)C(COC(=O)Cc1ccc(NC(=O)c2ccccc2-c2ccc(C(F)(F)F)cc2)c(NC(C)=O)c1)(C(=O)OCC)c1ccccc1 [Example 9-21]	20
CCOC(=O)C(COC(=O)Cc1ccc(NC(=O)c2ccccc2-c2ccc(C(F)(F)F)cc2)c(NC(=O)OC)c1)(C(=O)OCC)c1ccccc1 [Example 9-22]	0.96
CCOC(=O)C(COC(=O)Cc1ccc(NC(=O)c2ccccc2-c2ccc(C(F)(F)F)cc2)c(-c2nc(C)cs2)c1)(C(=O)OCC)c1ccccc1 [Example 9-23]	8.77
CCOC(=O)C(COC(=O)Cc1ccc(NC(=O)c2ccccc2-c2ccc(C(F)(F)F)cc2)c(-c2ccccc2)c1)(C(=O)OCC)c1ccccc1 [Example 9-24]	7.86
CCOC(=O)C(COC(=O)Cc1ccc(NC(=O)c2ccccc2-c2ccc(C(F)(F)F)cc2)c(C(=O)N(C)OC)c1)(C(=O)OCC)c1ccccc1 [Example 9-27]	0.82
